Reference: patent US20230066011A1, “PYRROLOPYRIMIDINE DERIVATIVE, AND PHARMACEUTICAL COMPOSITION FOR PREVENTING OR TREATING PROTEIN KINASE-RELATED DISEASE COMPRISING SAME AS ACTIVE INGREDIENT” (VORONOI CO., LTD., priority 2019, published 2023)

How the values were obtained:
human GST-CLK1 = target: T1, human GST-CLK1 (Homo sapiens, UniProt P49759); experiment: GST-CLK1 enzyme inhibition, ADP-Glo kinase assay; format: biochemical; settings: ATP 10 μM, GST-CLK1 129-end
T1 construct: purified human GST-CLK1 (129-end, SignalChem) enzyme; purchased SignalChem
T1 sequence (P49759 129-484 limits assumed): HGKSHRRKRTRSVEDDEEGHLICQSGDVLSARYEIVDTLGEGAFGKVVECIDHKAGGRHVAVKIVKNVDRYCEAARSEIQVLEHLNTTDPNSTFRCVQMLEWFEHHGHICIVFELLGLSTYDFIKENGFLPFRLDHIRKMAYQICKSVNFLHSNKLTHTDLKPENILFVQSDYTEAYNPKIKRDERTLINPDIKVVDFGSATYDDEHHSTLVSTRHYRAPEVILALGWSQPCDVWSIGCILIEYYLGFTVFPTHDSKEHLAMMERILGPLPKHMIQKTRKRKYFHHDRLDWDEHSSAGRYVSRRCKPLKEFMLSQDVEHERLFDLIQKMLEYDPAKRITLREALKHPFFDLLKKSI
Description: (§1) To evaluate an inhibitory activity of the compound according to the present invention against LRRK2, LRRK2 (G2019S), DYRK1, CLK1, and TTK kinases, experiments were performed as follows.
(§2) Each of the Example compounds was reacted with a purified human GST-CLK1 (129-end, SignalChem) enzyme to evaluate an ability to inhibit an enzyme using a method as described below. A composition of 40 mM Tris-HCl (pH 7.4), 20 mM MgCl2, 0.5 mg/mL BSA, and 50 μM DTT was used as a reaction buffer, and all reactions of test substances were performed in the reaction buffer. In the test, purified ATP (10 μM) and a specific substrate solution were reacted with a human GST-CLK1 (129-end, 3 ng) enzyme at 25° C. for an hour, and the enzyme activities were then determined using an in vitro ADP-Glo™ kinase assay (Promega). An enzyme-activity reaction solution, an ADP-Glo reaction solution, and an enzyme-ability detection solution were reacted at a ratio of 2:2:1 to measure a degree of inhibition of the enzyme activity with luminescence. The degree of inhibition of the enzyme activity according to the treatment concentration of each of the compounds was calculated based on the fluorescence of the enzyme activity of the solvent control which was not treated with the compound. In this case, the concentration of each of the compounds inhibiting 50% of the enzyme activity was determined to be an IC50 (nM) value. The IC50 (nM) value of each of the compounds was determined from 3 sets of data, and calculated using Prism (Version 5.01; GraphPad) software.

human GST-DYRK1A = target: T2, human GST-DYRK1A (Homo sapiens, UniProt Q13627); experiment: GST-DYRK1A enzyme inhibition, ADP-Glo kinase assay; format: biochemical; settings: ATP 10 μM, GST-DYRK1A full length, read-out: DYRK1 IC50
T2 construct: purified human GST-DYRK1A (full length, Thermo Scientifics) enzyme; purchased Thermo Scientifics
Description: as §1
as §2, with “GST-DYRK1A (full length, Thermo Scientifics)” for “GST-CLK1 (129-end, SignalChem)”, “GST-DYRK1A (full length, 10” for “GST-CLK1 (129-end, 3”, “value, and the” for “value. The”

| IC50 (human GST-CLK1) | IC50 (human GST-DYRK1A) | SMILES |
| --- | --- | --- |
| 301 to 1000 nM | 301 to 1000 nM | CNc1nc(Nc2ccc(P(C)(C)=O)cc2OC)nc2[nH]cc(C#N)c12 [Example 253, 2-((4-(dimethylphosphoryl)-2-methoxyphenyl)amino)-4-(methylamino)-7H-pyrrolo[2,3-d]pyrimidine-5-carbonitrile] |
| < 100 nM | 301 to 1000 nM | N#Cc1c[nH]c2nc(Nc3ccc(C(=O)N4CC(CO)(CO)C4)c4c3OCCO4)nc(NCC3CCCC3)c12 [Example 340, 2-((8-(3,3-bis (hydroxymethyl)azetidine-1-carbonyl)-2,3-dihydrobenzo [b][1,4]dioxin-5-yl)amino)-4-((cyclopentyl-methyl)amino)-7H-pyrrolo[2,3-d]pyrimidine-5-carbonitrile] |
| 301 to 1000 nM | 301 to 1000 nM | COc1cc(P(C)(C)=O)ccc1Nc1nc(NC2CCOCC2)c2c(C#N)c[nH]c2n1 [Example 272, 2-((4-(dimethylphosphoryl)-2-methoxyphenyl)amino)-4-((tetrahydro-2H-pyran-4-yl)amino)-7H-pyrrolo[2,3-d]pyrimidine-5-carbonitrile] |
| 301 to 1000 nM | 301 to 1000 nM | COc1cc(P(C)(C)=O)ccc1Nc1nc(N[C@@H]2CCOC2)c2c(C#N)c[nH]c2n1 [Example 270, (R)-2-((4-(dimethylphosphoryl)-2-methoxyphenyl)amino)-4-((tetrahydrofuran-3-yl)amino)-7H-pyrrolo[2,3-d]pyrimidine-5-carbonitrile] |
| < 100 nM | 101 to 300 nM | CCNc1nc(Nc2ccc(P(C)(C)=O)cc2OC)nc2[nH]cc(C(F)(F)F)c12 [Example 368, (4-((4-(ethylamino)-5-(trifluoromethyl)-7H-pyrrolo[2,3-d]pyrimidin-2-yl)amino)-3-methoxyphenyl) dimethyl-phosphine oxide] |
| < 100 nM | 301 to 1000 nM | COc1cc(P2(=O)CCN(C3COC3)CC2)ccc1Nc1nc(NC2CC2)c2c(C#N)c[nH]c2n1 [Example 286, 4-(cyclo-propylamino)-2-((2-methoxy-4-(1-(oxetna-3-yl)-4-oxido-1,4-azaphosphinan-4-yl)phenyl)amino)-7H-pyrrolo[2,3-d]pyrimidine-5-carbonitrile] |
| < 100 nM | 301 to 1000 nM | N#Cc1c[nH]c2nc(Nc3ccc(C(=O)N4CC(CO)(CO)C4)c4c3OCCO4)nc(NC3CCC3)c12 [Example 333, 2-((8-(3,3-bis (hydroxymethyl)azetidine-1-carbonyl)-2,3-dihydrobenzo[b] [1,4]dioxin-5-yl)amino)-4-(cyclobutyl-amino)-7H-pyrrolo[2,3-d]pyrimidine-5-carbonitrile] |
| 301 to 1000 nM | 301 to 1000 nM | COc1cc(P(C)(C)=O)ccc1Nc1nc(NC2CCC2)c2c(C(F)(F)F)c[nH]c2n1 [Example 386, (4-((4-(cyclo-butylamino)-5-(trifluoromethyl)-7H-pyrrolo[2,3-d]pyrimidin-2-yl)amino)-3-methoxyphenyl) dimethyl phosphine oxide] |
| 301 to 1000 nM | 101 to 300 nM | CCNc1nc(Nc2ccc(P(C)(C)=O)cc2OC)nc2[nH]cc(C#N)c12 [Example 252, 2-((4-(dimethylphosphoryl)-2-methoxyphenyl)amino)-4-(ethylamino)-7H-pyrrolo[2,3-d]pyrimidine-5-carbonitrile] |
| 301 to 1000 nM | 301 to 1000 nM | CC[C@H](C)Nc1nc(Nc2ccc(P(C)(C)=O)cc2OC)nc2[nH]cc(C#N)c12 [Example 267, (S)-4-(sec-butylamino)-2-((4-(dimethylphosphoryl)-2-methoxyphenyl)amino)-7H-pyrrolo[2,3-d]pyrimidine-5-carbonitrile] |
| 301 to 1000 nM | 301 to 1000 nM | COc1cc(S(C)(=O)=O)ccc1Nc1nc(NCC(C)C)c2c(C(F)(F)F)c[nH]c2n1 [Example 180, N^4-isobutyl-N^2-(2-methoxy-4-(methylsulfonyl)phenyl)-5-(trifluoromethyl)-7H-pyrrolo[2,3-d]pyrimidine-2,4-diamine] |
| 101 to 300 nM | 101 to 300 nM | CCNc1nc(Nc2ccc(C(=O)N3CCN(C4COC4)CC3)c3c2OCCO3)nc2[nH]cc(C#N)c12 [Example 265, 4-(ethylamino)-2-((8-(4-(oxetan-3-yl)piperazine-1-carbonyl)-2,3-dihydrobenzo[b][1,4]dioxin-5-yl)amino)-7H-pyrrolo[2,3-d]pyrimidine-5-carbonitrile] |
| 301 to 1000 nM | 301 to 1000 nM | COCCNc1nc(Nc2ccc(S(C)(=O)=O)cc2OC)nc2[nH]cc(C(N)=O)c12 [Example 234, 2-((2-methoxy-4-(methylsulfonyl)phenyl)amino)-4-((2-methoxy)amino)-7H-pyrrolo[2,3-d]pyrimidine-5-carboxamide] |
| 301 to 1000 nM | 301 to 1000 nM | COc1cc(P2(=O)CCN(C3CC3)CC2)ccc1Nc1nc(N[C@@H]2CCOC2)c2c(C#N)c[nH]c2n1 [Example 298, (R)-2-((4-(1-cyclopropyl-4-oxido-1,4-azaphosphinan-4-yl)-2-methoxyphenyl)a-mino)-4-((tetrahydrofuran-3-yl)amino)-7H-pyrrolo[2,3-d]pyrimidine-5-carbonitrile] |
| 301 to 1000 nM | 301 to 1000 nM | COc1cc(P(C)(C)=O)ccc1Nc1nc(NC(C)C)c2c(C#N)c[nH]c2n1 [Example 114, 2-((4-(dimethylphosphoryl)-2-methoxyphenyl)amino)-4-(isopropylamino)-7H-pyrrolo[2,3-d]pyrimidine-5-carbonitrile] |
| < 100 nM | 301 to 1000 nM | CCCNc1nc(Nc2ccc(C(=O)N3CC(CO)(CO)C3)c3c2OCCO3)nc2[nH]cc(C#N)c12 [Example 327, 2-((8-(3,3-bis(hydroxy-methyl)azetidine-1-carbonyl)-2,3-dihydrobenzo[b] [1,4]dioxin-5-yl)amino)-4-(propylamino)-7H-pyrrolo[2,3-d]pyrimidine-5-carbonitrile] |
| < 100 nM | 301 to 1000 nM | COc1cc(P2(=O)CCN(C3CC3)CC2)ccc1Nc1nc(N[C@H]2CCOC2)c2c(C#N)c[nH]c2n1 [Example 300, (S)-2-((4-(1-cyclopropyl-4-oxido-1,4-azaphosphinan-4-yl)-2-methoxyphenyl)a-mino)-4-((tetrahydrofuran-3-yl)amino)-7H-pyrrolo[2,3-d]pyrimidine-5-carbonitrile] |
| 101 to 300 nM | 301 to 1000 nM | COc1cc(P(C)(C)=O)ccc1Nc1nc(NC2CCC2)c2c(C#N)c[nH]c2n1 [Example 268, 4-(cyclobutylamino)-2-((4-(dimethylphosphoryl)-2-methoxyphenyl)amino)-7H-pyrrolo[2,3-d]pyrimidine-5-carbonitrile] |
| 101 to 300 nM | 301 to 1000 nM | CCCNc1nc(Nc2ccc(P3(=O)CCN(C4COC4)CC3)cc2OC)nc2[nH]cc(C#N)c12 [Example 283, 2-((2-methoxy-4-(1-(oxetan-3-yl)-4-oxido-1,4-azaphosphinan-4-yl)phenyl)amino)-4-(propylamino)-7H-pyrrolo[2,3-d]pyrimidine-5-carbonitrile] |
| < 100 nM | 301 to 1000 nM | CC(C)CNc1nc(Nc2ccc(C(=O)N3CCOCC3)c3c2OCC3)nc2[nH]cc(C#N)c12 [Example 350, 4-(isobutyl-amino)-2-((4-(morpholine-4-carbonyl)-2,3-dihydrobenzo-furan-7-yl)amino)-7H-pyrrolo[2,3-d]pyrimidine-5-carbonitrile] |
| 301 to 1000 nM | 301 to 1000 nM | N#Cc1c[nH]c2nc(Nc3ccc(C(=O)N4CCOCC4)c4c3OCC4)nc(NCC3CCCC3)c12 [Example 342, 4-((cyclo-pentylmeth-yl)amino)-2-((4-(morpholine-4-carbonyl)-2,3-dihydrobenzo-furan-7-yl)amino)-7H-pyrrolo[2,3-d]pyrimidine-5-carbonitrile] |
| < 100 nM | 301 to 1000 nM | CS(=O)(=O)CCNc1nc(Nc2ccc(C(=O)N3CCOCC3)c3c2OCC3)nc2[nH]cc(C#N)c12 [Example 344, 4-((2-(methyl-sulfonyl)eth-yl)amino)-2-((4-(morpholine-4-carbonyl)-2,3-dihydrobenzo-furan-7-yl)amino)-7H-pyrrolo[2,3-d]pyrimidine-5-carbonitrile] |
